Laboratory results reported in the NIST ThermoML archive (doi:10.1021/je7003929).

Test: xn = mol fraction of the nth substance listed
Settings: Liquid, Vibrating tube method

c1ccc2sccc2c1 [benzo[b]thiophene] + CCCCCC
Settings | mass density [kg/m3]
332.9 K, 1028 kPa, x2 = 0.4495 | 892.5
332.9 K, 2010 kPa, x2 = 0.4495 | 893.2
332.9 K, 3021 kPa, x2 = 0.4495 | 894.1
332.9 K, 4018 kPa, x2 = 0.4495 | 895.3
332.9 K, 5018 kPa, x2 = 0.4495 | 896.2
332.9 K, 6008 kPa, x2 = 0.4495 | 897
332.9 K, 7019 kPa, x2 = 0.4495 | 897.9
332.9 K, 8016 kPa, x2 = 0.4495 | 898.8
332.9 K, 9023 kPa, x2 = 0.4495 | 899.8
332.9 K, 10018 kPa, x2 = 0.4495 | 900.7
332.9 K, 11007 kPa, x2 = 0.4495 | 901.6
332.9 K, 12010 kPa, x2 = 0.4495 | 902.4
332.9 K, 13019 kPa, x2 = 0.4495 | 903.3
332.9 K, 14015 kPa, x2 = 0.4495 | 904.2
332.9 K, 15019 kPa, x2 = 0.4495 | 905
332.9 K, 16002 kPa, x2 = 0.4495 | 905.9
332.9 K, 17014 kPa, x2 = 0.4495 | 906.7
332.9 K, 18017 kPa, x2 = 0.4495 | 907.5
332.9 K, 19023 kPa, x2 = 0.4495 | 908.3
332.9 K, 20028 kPa, x2 = 0.4495 | 909.1
342.55 K, 1028 kPa, x2 = 0.2588 | 982.2
342.55 K, 2013 kPa, x2 = 0.2588 | 983.1
342.55 K, 3013 kPa, x2 = 0.2588 | 983.8
342.55 K, 4017 kPa, x2 = 0.2588 | 984.7
342.55 K, 5024 kPa, x2 = 0.2588 | 985.5
342.55 K, 6012 kPa, x2 = 0.2588 | 986.3
342.55 K, 7004 kPa, x2 = 0.2588 | 987.1
342.55 K, 8017 kPa, x2 = 0.2588 | 987.9
342.55 K, 9012 kPa, x2 = 0.2588 | 988.7
342.55 K, 10016 kPa, x2 = 0.2588 | 989.5
342.55 K, 11015 kPa, x2 = 0.2588 | 990.4
342.55 K, 12022 kPa, x2 = 0.2588 | 991.2
342.55 K, 13030 kPa, x2 = 0.2588 | 992
342.55 K, 14011 kPa, x2 = 0.2588 | 992.8
342.55 K, 15020 kPa, x2 = 0.2588 | 993.6
342.55 K, 16020 kPa, x2 = 0.2588 | 994.3
342.55 K, 17017 kPa, x2 = 0.2588 | 995.1
342.55 K, 18008 kPa, x2 = 0.2588 | 995.8
342.55 K, 19011 kPa, x2 = 0.2588 | 996.6
342.55 K, 20013 kPa, x2 = 0.2588 | 997.4
342.63 K, 1018 kPa, x2 = 0.0629 | 1085.6
342.63 K, 2039 kPa, x2 = 0.0629 | 1086.3
342.63 K, 3009 kPa, x2 = 0.0629 | 1087
342.63 K, 4022 kPa, x2 = 0.0629 | 1087.8
342.63 K, 5025 kPa, x2 = 0.0629 | 1088.5
342.63 K, 5925 kPa, x2 = 0.0629 | 1089.1
342.63 K, 7031 kPa, x2 = 0.0629 | 1089.9
342.63 K, 8009 kPa, x2 = 0.0629 | 1090.6
342.63 K, 9007 kPa, x2 = 0.0629 | 1091.3
342.63 K, 10024 kPa, x2 = 0.0629 | 1092
342.63 K, 11013 kPa, x2 = 0.0629 | 1092.7
342.63 K, 12012 kPa, x2 = 0.0629 | 1093.4
342.63 K, 13000 kPa, x2 = 0.0629 | 1094.1
342.63 K, 14019 kPa, x2 = 0.0629 | 1094.8
342.63 K, 15027 kPa, x2 = 0.0629 | 1095.4
342.63 K, 16019 kPa, x2 = 0.0629 | 1096.1
342.63 K, 17009 kPa, x2 = 0.0629 | 1096.8
342.63 K, 18015 kPa, x2 = 0.0629 | 1097.5
342.63 K, 19019 kPa, x2 = 0.0629 | 1098.2
342.63 K, 20018 kPa, x2 = 0.0629 | 1098.8
342.71 K, 1025 kPa, x2 = 0.9432 | 640.4
342.71 K, 2014 kPa, x2 = 0.9432 | 641.8
342.71 K, 3011 kPa, x2 = 0.9432 | 643.3
342.71 K, 4027 kPa, x2 = 0.9432 | 644.8
342.71 K, 5014 kPa, x2 = 0.9432 | 646.2
342.71 K, 6027 kPa, x2 = 0.9432 | 647.6
342.71 K, 7019 kPa, x2 = 0.9432 | 649
342.71 K, 8015 kPa, x2 = 0.9432 | 650.3
342.71 K, 9010 kPa, x2 = 0.9432 | 651.6
342.71 K, 10003 kPa, x2 = 0.9432 | 652.9
342.71 K, 11017 kPa, x2 = 0.9432 | 654.2
342.71 K, 12006 kPa, x2 = 0.9432 | 655.4
342.71 K, 13024 kPa, x2 = 0.9432 | 656.7
342.71 K, 14021 kPa, x2 = 0.9432 | 657.8
342.71 K, 15006 kPa, x2 = 0.9432 | 659
342.71 K, 16015 kPa, x2 = 0.9432 | 660.2
342.71 K, 17016 kPa, x2 = 0.9432 | 661.3
342.71 K, 18000 kPa, x2 = 0.9432 | 662.4
342.71 K, 19034 kPa, x2 = 0.9432 | 663.6
342.71 K, 20012 kPa, x2 = 0.9432 | 664.6
342.72 K, 1034 kPa, x2 = 0.7491 | 734.5
342.72 K, 2000 kPa, x2 = 0.7491 | 735.8
342.72 K, 3023 kPa, x2 = 0.7491 | 737
342.72 K, 4016 kPa, x2 = 0.7491 | 738.2
342.72 K, 5014 kPa, x2 = 0.7491 | 739.5
342.72 K, 6014 kPa, x2 = 0.7491 | 740.7
342.72 K, 7019 kPa, x2 = 0.7491 | 741.8
342.72 K, 8012 kPa, x2 = 0.7491 | 743
342.72 K, 9010 kPa, x2 = 0.7491 | 744.1
342.72 K, 10013 kPa, x2 = 0.7491 | 745.3
342.72 K, 11016 kPa, x2 = 0.7491 | 746.4
342.72 K, 12016 kPa, x2 = 0.7491 | 747.5
342.72 K, 13011 kPa, x2 = 0.7491 | 748.6
342.72 K, 14001 kPa, x2 = 0.7491 | 749.6
342.72 K, 15003 kPa, x2 = 0.7491 | 750.7
342.72 K, 16025 kPa, x2 = 0.7491 | 751.7
342.72 K, 17012 kPa, x2 = 0.7491 | 752.8
342.72 K, 18018 kPa, x2 = 0.7491 | 753.8
342.72 K, 19008 kPa, x2 = 0.7491 | 754.7
342.72 K, 20017 kPa, x2 = 0.7491 | 755.8
342.79 K, 1022 kPa, x2 = 0.4495 | 883.3
342.79 K, 2032 kPa, x2 = 0.4495 | 884.3
342.79 K, 3024 kPa, x2 = 0.4495 | 885.3
342.79 K, 4029 kPa, x2 = 0.4495 | 886.4
342.79 K, 5019 kPa, x2 = 0.4495 | 887.3
342.79 K, 6019 kPa, x2 = 0.4495 | 888.3
342.79 K, 7035 kPa, x2 = 0.4495 | 889.3
342.79 K, 8022 kPa, x2 = 0.4495 | 890.2
342.79 K, 9016 kPa, x2 = 0.4495 | 891.1
342.79 K, 10010 kPa, x2 = 0.4495 | 892
342.79 K, 11010 kPa, x2 = 0.4495 | 893
342.79 K, 12024 kPa, x2 = 0.4495 | 893.9
342.79 K, 13001 kPa, x2 = 0.4495 | 894.8
342.79 K, 14017 kPa, x2 = 0.4495 | 895.7
342.79 K, 15021 kPa, x2 = 0.4495 | 896.6
342.79 K, 16020 kPa, x2 = 0.4495 | 897.4
342.79 K, 17009 kPa, x2 = 0.4495 | 898.3
342.79 K, 18009 kPa, x2 = 0.4495 | 899.2
342.79 K, 19011 kPa, x2 = 0.4495 | 900
342.79 K, 20011 kPa, x2 = 0.4495 | 900.9
352.33 K, 1030 kPa, x2 = 0.2588 | 973.2
352.33 K, 2012 kPa, x2 = 0.2588 | 973.9
352.33 K, 3021 kPa, x2 = 0.2588 | 974.8
352.33 K, 4018 kPa, x2 = 0.2588 | 975.8
352.33 K, 5020 kPa, x2 = 0.2588 | 976.6
352.33 K, 6024 kPa, x2 = 0.2588 | 977.6
352.33 K, 7016 kPa, x2 = 0.2588 | 978.5
352.33 K, 8000 kPa, x2 = 0.2588 | 979.3
352.33 K, 9020 kPa, x2 = 0.2588 | 980.2
352.33 K, 10010 kPa, x2 = 0.2588 | 981
352.33 K, 11018 kPa, x2 = 0.2588 | 981.9
352.33 K, 12012 kPa, x2 = 0.2588 | 982.7
352.33 K, 13013 kPa, x2 = 0.2588 | 983.5
352.33 K, 14007 kPa, x2 = 0.2588 | 984.3
352.33 K, 15016 kPa, x2 = 0.2588 | 985.2
352.33 K, 16012 kPa, x2 = 0.2588 | 986
352.33 K, 17013 kPa, x2 = 0.2588 | 986.8
352.33 K, 18003 kPa, x2 = 0.2588 | 987.6
352.33 K, 19011 kPa, x2 = 0.2588 | 988.4
352.33 K, 20014 kPa, x2 = 0.2588 | 989.1
